{"source": "the supplement of paper PMC10307832", "test_in_all_cases": "relative viability (nuclei count vs DMSO), 5 days (fraction); higher = more cells survive", "key": {"Linsitinib + Dasatinib": {"compound": "C[C@]1(O)C[C@@H](c2nc(-c3ccc4ccc(-c5ccccc5)nc4c3)c3c(N)nccn32)C1 [Linsitinib] + Cc1nc(Nc2ncc(C(=O)Nc3c(C)cccc3Cl)s2)cc(N2CCN(CCO)CC2)n1 [Dasatinib] (partner 0.075 µM)", "outline": "(§1)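 Nuclei were stained with Hoechst during a one-step fixation (final 0.05% Triton X-100, 1% formaldehyde, 1 ug/ml Hoechst) carried out 5 days after dosing, then counted on 4× images. The cells, lung cancer lines in 1536-well plates, had been dosed by pin tool the day after seeding with one drug alone or a fixed anchor-drug dose plus five library-drug doses (not always all listed) in √10 steps. Relative viability is the nuclei count in treated wells divided by that in vehicle wells, and each value is the median of duplicate plates.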"}, "Linsitinib + Vorinostat": {"compound": "C[C@]1(O)C[C@@H](c2nc(-c3ccc4ccc(-c5ccccc5)nc4c3)c3c(N)nccn32)C1 [Linsitinib] + O=C(CCCCCCC(=O)Nc1ccccc1)NO [Vorinostat] (partner 1 µM)", "outline": "as §1"}, "Ispinesib + Pemetrexed": {"compound": "Cc1ccc(C(=O)N(CCCN)[C@@H](c2nc3cc(Cl)ccc3c(=O)n2Cc2ccccc2)C(C)C)cc1 [Ispinesib] + Nc1nc2[nH]cc(CCc3ccc(C(=O)N[C@@H](CCC(=O)O)C(=O)O)cc3)c2c(=O)[nH]1 [Pemetrexed] (partner 0.2 µM)", "outline": "as §1"}, "Linsitinib + Foretinib": {"compound": "C[C@]1(O)C[C@@H](c2nc(-c3ccc4ccc(-c5ccccc5)nc4c3)c3c(N)nccn32)C1 [Linsitinib] + COc1cc2c(Oc3ccc(NC(=O)C4(C(=O)Nc5ccc(F)cc5)CC4)cc3F)ccnc2cc1OCCCN1CCOCC1 [Foretinib] (partner 0.25 µM)", "outline": "as §1"}}}
{"cell line": "UMC-11", "values": [{"measurement": "relative viability", "setting": "Linsitinib + Dasatinib; first compound 0.01 µM", "result": 0.462}, {"measurement": "relative viability", "setting": "Linsitinib + Dasatinib; first compound 0.03162 µM", "result": 0.44}, {"measurement": "relative viability", "setting": "Linsitinib + Dasatinib; first compound 0.1 µM", "result": 0.501}, {"measurement": "relative viability", "setting": "Linsitinib + Dasatinib; first compound 1 µM", "result": 0.438}, {"measurement": "relative viability", "setting": "Linsitinib + Vorinostat; first compound 0.01 µM", "result": 0.369}, {"measurement": "relative viability", "setting": "Linsitinib + Vorinostat; first compound 0.03162 µM", "result": 0.389}, {"measurement": "relative viability", "setting": "Linsitinib + Vorinostat; first compound 0.1 µM", "result": 0.357}, {"measurement": "relative viability", "setting": "Linsitinib + Vorinostat; first compound 0.3162 µM", "result": 0.217}, {"measurement": "relative viability", "setting": "Linsitinib + Vorinostat; first compound 1 µM", "result": 0.386}, {"measurement": "relative viability", "setting": "Ispinesib + Pemetrexed; first compound 0.001 µM", "result": 0.844}, {"measurement": "relative viability", "setting": "Ispinesib + Pemetrexed; first compound 0.003162 µM", "result": 0.829}, {"measurement": "relative viability", "setting": "Ispinesib + Pemetrexed; first compound 0.01 µM", "result": 0.868}, {"measurement": "relative viability", "setting": "Ispinesib + Pemetrexed; first compound 0.03162 µM", "result": 0.451}, {"measurement": "relative viability", "setting": "Ispinesib + Pemetrexed; first compound 0.1 µM", "result": 0.235}, {"measurement": "relative viability", "setting": "Linsitinib + Foretinib; first compound 0.01 µM", "result": 0.976}, {"measurement": "relative viability", "setting": "Linsitinib + Foretinib; first compound 0.03162 µM", "result": 0.89}, {"measurement": "relative viability", "setting": "Linsitinib + Foretinib; first compound 0.1 µM", "result": 1.03}, {"measurement": "relative viability", "setting": "Linsitinib + Foretinib; first compound 1 µM", "result": 1.02}]}
